Experimental data reported in US9062351B2, “Diagnostic, prognostic and therapeutic uses of long non-coding RNAs for cancer and regenerative medicine” (The Board of Trustees of the Leland Stanford Junior …, priority 2011, dated 2015).

What was measured:
NF-YA [1] = target: T1, NF-YA (Homo sapiens, UniProt P23511); assay: RNA immunoprecipitation of NF-YA; assay type: binding; settings: doxorubicin-treated primary human lung fibroblasts, qRT-PCR
T1 construct: RNA chromatography of PANDA from doxorubicin-treated FL3 cell lysates; endogenous in cells; host or cells: doxorubicin-treated human fetal lung fibroblasts (FL3)
T1 sequence (P23511 whole entry): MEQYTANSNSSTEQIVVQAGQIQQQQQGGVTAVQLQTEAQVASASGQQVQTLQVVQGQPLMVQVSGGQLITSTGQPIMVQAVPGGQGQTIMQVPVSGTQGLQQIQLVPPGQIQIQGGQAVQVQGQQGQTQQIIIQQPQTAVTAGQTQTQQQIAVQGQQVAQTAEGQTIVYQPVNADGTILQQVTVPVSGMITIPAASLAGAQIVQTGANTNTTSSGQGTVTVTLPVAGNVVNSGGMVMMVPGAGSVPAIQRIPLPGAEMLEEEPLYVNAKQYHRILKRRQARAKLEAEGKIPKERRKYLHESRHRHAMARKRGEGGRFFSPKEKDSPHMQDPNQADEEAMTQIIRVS
Experimental: Ten million cells were treated with 200 ng/ml doxorubicin for 16 hours, trypsinized and crosslinked with 1% formaldehyde for 10 minutes, followed by the addition of 0.125 M glycine for 5 minutes. After two PBS washes, cells were lysed with 2× volume of Buffer A (10 mM HEPES pH 7.5, 1.5 mM MgCl2, 10 mM KCl, 0.5 mM DTT, 1 mM PMSF) for 15 minutes on ice at 150 r.p.m. NP-40 was added to a final concentration of 0.25% for 5 minutes on ice. Lysates were centrifuged for 3 minutes at 2,000 r.p.m., and the supernatant (cytosol) was collected. Next, an equal volume of Buffer C as that used of Buffer A was added to the pellet for 20 minutes with frequent vortex (20 mM HEPES pH 7.5, 10% glycerol, 0.42 M KCl, 4 mM MgCl2, 0.5 mM DTT, and 1 mM PMSF). Nuclear lysates were dounced for 5 seconds using a motorized pestle and sonicated for 7 minutes using a Diagenode Sonicator (30 seconds on, 30 seconds off, power setting H). Nuclear and cytoplasmic lysates were combined and centrifuged for 15 minutes at 13,000 r.p.m. Supernatants were transferred into micro spin columns (Pierce 89879), and 2 μg of antibody was added and incubated overnight. We washed 10 μl of Protein A/G UltraLink Resin (Pierce 53132) three times with RIP wash buffer (50 mM TrisHcl pH 7.9, 10% glycerol, 100 mM KCl, 5 mM MgCl2, 10 mM B-me and 0.1% NP-40) and added it to the immunoprecipitation reaction for 1 hour at 4° C. […]

p21 = target: T2, p21 (Homo sapiens, UniProt P38936); assay: RNAse mediated RNA chromatography; assay type: binding; settings: lysates of doxorubicin-treated human fibroblasts
T2 construct: RNA chromatography of PANDA from doxorubicin-treated FL3 cell lysates; endogenous in cells; host or cells: doxorubicin-treated human fetal lung fibroblasts (FL3)
T2 sequence (P38936 whole entry): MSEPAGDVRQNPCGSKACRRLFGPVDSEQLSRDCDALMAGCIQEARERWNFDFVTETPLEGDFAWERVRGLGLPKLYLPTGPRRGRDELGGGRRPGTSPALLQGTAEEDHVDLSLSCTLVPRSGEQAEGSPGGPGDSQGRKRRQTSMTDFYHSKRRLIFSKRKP
Experimental: (§1) RNAse mediated RNA chromatography (Michlewski et al. (2010) RNA 16:1673-1678, herein incorporated by reference in its entirety) was performed as previously described with the following modifications: 6 pmols of RNA (PANDA or a 1.2-kb fragment of LacZ) were used per reaction. RNA was folded (90° C. for 2 minutes, ice for 2 minutes), supplied with RNA structure buffer (Ambion) and shifted to room temperature (22-25° C.) for 20 minutes before conjugation to beads. RNAse digestion was performed with 5 μl of RNase A/T1 cocktail (Ambion) and 2 μl of RNase V1 (Ambion). Cellular lysates were prepared as follows: 10 million doxorubicin treated cells (16 hours) were incubated in 200 μl PBS, 600 μl H20 and 200 μl nuclear lysis buffer (1.28 M sucrose; 40 mM Tris-HCl pH 7.5; 20 mM MgCl2; 4% Triton X-100) on ice for 20 minutes. Nuclei were pelleted by centrifugation at 2,500 g for 15 minutes. The nuclear pellet was resuspended in 1 ml RIP buffer (150 mM KCl, 25 mM Tris pH 7.4, 0.5 mM DTT, 0.5% NP40, 1 mM PMSF and protease inhibitor (Roche Complete Protease Inhibitor Cocktail Tablets)). Resuspended nuclei were sheared using a motorized douncer for 5 seconds. Nuclear membrane and debris were pelleted by centrifugation at 18,000 g for 10 minutes.
(§2) Core promoters of cell death genes downstream of p53 are distinguished from other p53 target genes by the binding site for the transcription factor NF-YA (Morachis et al. (2010) Genes Dev. 24:135-147), and we reasoned that PANDA may affect NF-YA function. […] NF-YA is a nuclear transcription factor that activates the p53-responsive promoter of FAS upon DNA damage (Morachis et al. (2010) Genes Dev. 24:135-147). […] Thus, PANDA binding to NF-YA may evict or prevent NF-YA binding to chromatin. […] CDKN1A mRNA produces p21 to mediate arrest, whereas PANDA impedes NF-YA activation of apoptotic gene expression program (FIG. 8).

NF-YA [2] = target: T1, NF-YA; assay: RNAse mediated RNA chromatography; assay type: binding; settings: in vitro transcribed RNA; lysates of doxorubicin-treated human fibroblasts
Experimental: as §1, §2

LSD1 = target: T3, LSD1 (Homo sapiens, UniProt O60341); assay: RNAse mediated RNA chromatography; assay type: binding; settings: lysates of doxorubicin-treated human fibroblasts
T3 construct: RNA chromatography of PANDA from doxorubicin-treated FL3 cell lysates; endogenous in cells; host or cells: doxorubicin-treated human fetal lung fibroblasts (FL3)
Experimental: as §1, §2

EZH2 = target: T4, EZH2 (Homo sapiens, UniProt Q15910); assay: RNAse mediated RNA chromatography; assay type: binding; settings: lysates of doxorubicin-treated human fibroblasts
T4 construct: RNA chromatography of PANDA from doxorubicin-treated FL3 cell lysates; endogenous in cells; host or cells: doxorubicin-treated human fetal lung fibroblasts (FL3)
T4 sequence (Q15910 whole entry): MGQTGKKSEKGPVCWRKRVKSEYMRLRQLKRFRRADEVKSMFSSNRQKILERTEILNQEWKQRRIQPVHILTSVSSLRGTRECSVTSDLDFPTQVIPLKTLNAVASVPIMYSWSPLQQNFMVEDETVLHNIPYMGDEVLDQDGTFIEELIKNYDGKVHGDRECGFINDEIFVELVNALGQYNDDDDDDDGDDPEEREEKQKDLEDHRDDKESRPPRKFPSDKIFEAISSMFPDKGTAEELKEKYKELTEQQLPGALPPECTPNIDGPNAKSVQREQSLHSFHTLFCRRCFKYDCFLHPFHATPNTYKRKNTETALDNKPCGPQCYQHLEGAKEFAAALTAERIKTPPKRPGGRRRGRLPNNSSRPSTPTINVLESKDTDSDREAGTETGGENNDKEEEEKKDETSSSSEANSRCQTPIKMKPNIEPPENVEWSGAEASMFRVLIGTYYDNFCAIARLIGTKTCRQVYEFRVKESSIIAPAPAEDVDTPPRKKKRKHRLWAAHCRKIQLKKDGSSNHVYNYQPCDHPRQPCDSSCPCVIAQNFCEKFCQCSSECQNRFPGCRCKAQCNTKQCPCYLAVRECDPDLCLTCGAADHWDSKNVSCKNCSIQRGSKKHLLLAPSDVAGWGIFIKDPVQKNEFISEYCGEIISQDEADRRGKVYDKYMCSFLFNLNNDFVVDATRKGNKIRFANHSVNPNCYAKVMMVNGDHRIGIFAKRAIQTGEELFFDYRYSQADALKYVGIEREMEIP
T4 sequence (O75530 whole entry partner): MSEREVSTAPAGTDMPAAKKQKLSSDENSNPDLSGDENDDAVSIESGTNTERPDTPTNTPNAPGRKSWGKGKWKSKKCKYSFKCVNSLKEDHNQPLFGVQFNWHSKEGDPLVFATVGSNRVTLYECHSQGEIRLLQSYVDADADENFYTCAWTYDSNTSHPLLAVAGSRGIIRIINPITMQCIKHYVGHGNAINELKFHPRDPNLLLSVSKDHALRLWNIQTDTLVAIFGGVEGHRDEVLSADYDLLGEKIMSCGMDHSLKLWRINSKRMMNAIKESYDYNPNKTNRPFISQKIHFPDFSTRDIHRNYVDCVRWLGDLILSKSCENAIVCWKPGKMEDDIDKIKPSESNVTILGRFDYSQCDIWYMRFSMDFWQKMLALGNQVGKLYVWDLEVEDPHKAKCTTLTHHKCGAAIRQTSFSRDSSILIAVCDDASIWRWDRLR
T4 sequence (Q15022 whole entry partner): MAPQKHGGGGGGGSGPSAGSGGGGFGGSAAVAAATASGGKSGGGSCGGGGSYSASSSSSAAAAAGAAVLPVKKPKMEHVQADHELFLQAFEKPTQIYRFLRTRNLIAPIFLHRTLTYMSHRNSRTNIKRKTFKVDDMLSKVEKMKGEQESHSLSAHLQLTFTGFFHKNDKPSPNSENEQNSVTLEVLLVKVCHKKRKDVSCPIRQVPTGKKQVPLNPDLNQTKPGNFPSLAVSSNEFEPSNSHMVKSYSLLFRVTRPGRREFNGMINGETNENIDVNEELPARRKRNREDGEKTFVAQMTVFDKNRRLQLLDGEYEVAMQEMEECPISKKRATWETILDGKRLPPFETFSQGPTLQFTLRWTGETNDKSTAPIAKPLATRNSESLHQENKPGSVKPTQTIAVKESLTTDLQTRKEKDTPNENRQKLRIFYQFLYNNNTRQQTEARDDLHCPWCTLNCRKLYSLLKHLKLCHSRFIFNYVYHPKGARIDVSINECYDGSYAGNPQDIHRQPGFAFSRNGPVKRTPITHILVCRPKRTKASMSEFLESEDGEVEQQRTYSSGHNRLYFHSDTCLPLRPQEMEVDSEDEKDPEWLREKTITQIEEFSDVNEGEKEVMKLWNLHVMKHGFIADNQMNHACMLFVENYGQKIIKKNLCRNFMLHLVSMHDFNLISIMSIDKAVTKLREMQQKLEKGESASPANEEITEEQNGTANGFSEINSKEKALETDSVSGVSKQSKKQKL
Experimental: as §1, §2

[3] = system: human fetal lung fibroblasts (FL3); assay: TUNEL assay; assay type: cell-based; settings: FL3 cells exposed to control siRNA
Experimental: TUNEL assays were performed using the in situ Cell Death Detection Kit, TMR Red (Roche). Human fetal lung fibroblasts were cultured on chamber slides (Lab-Tek), treated with 200 ng/ml doxorubicin (Sigma) for 24 hours, fixed with methanol at −20° C. for 10 minutes and incubated with the TUNEL labeling mixture for 1 hour at 37° C. Slides were then washed with PBS and mounted in Prolong Gold antifade reagent with DAPI (Invitrogen) and imaged at 20× magnification.

[4] = system: human fetal lung fibroblasts (FL3); assay: Quantitative RT-PCR of lncRNA expression, doxorubicin time course; assay type: cell-based; settings: 24 hour time course
Experimental: Total RNA was extracted from cells using the TRIzol reagent (Invitrogen) and the RNeasy Mini Kit (Qiagen), and genomic DNA was eliminated using TURBO DNA-free (Ambion). RT-PCR using 50-250 ng of total RNA was performed using the One-Step RT-PCR Master Mix (Applied Biosystems) using TaqMan Gene Expression Assays and normalized to GAPDH. Strand-specific RT-PCR for PANDA was performed using the One-Step RT-PCR Master Mix SYBR Green (Stratagene)).
A panel of TaqMan custom ncRNA assays was developed targeting 60 of the 219 new transcribed regions using the ‘single-exon’ design mode. The transcript specificity and genome specificity of all TaqMan assays were verified using a position-specific alignment matrix to predict potential cross reactivity between designed assays and genome-wide nontarget transcripts or genomic sequences. […]
Our co-expression maps predicted associations of several lncRNAs with DNA damage response pathways (FIG. 3C and FIG. 11). […] In order to confirm whether these lncRNAs may be responsive to DNA damage, we measured the expression changes of 60 lncRNAs predicted in the DNA damage pathway (as well as upst:CDKN1A:−800) by quantitative RT-PCR in human fetal lung fibroblasts treated with doxorubicin over a 24 hour time course. […]

[5] = system: human fetal lung fibroblasts; assay: Custom tiling array RNA hybridization (ncRNA expression); assay type: cell-based; settings: doxorubicin-treated human fetal lung fibroblasts; tiling array and qRT-PCR; of 216 ncRNAs
From the text: A custom tiling array (Roche NimbleGen) was designed at 5 bp resolution across 25 kb of the 9p21 region (which encompasses CDKN2A, P14ARF and CDKN2B), as well as from 10 kb upstream to 2 kb downstream of each TSS from 53 other cell-cycle genes, including those encoding cyclins, CDKs and CDKIs (Table 1). In addition, the HOXA and HOXD loci were placed on the array as a control. Briefly, RNA was amplified (MessageAmp Kit, Ambion), reverse transcribed (RETROscript Kit, Ambion), labeled and hybridized according to the standard NimbleGen protocol.
Robust multichip average normalized single channel data from each array were subjected to peak calling using the NimbleScan program (Roche NimbleGen) with a window size of 50. Peaks with a peak score greater than ten were considered significant transcriptional units. […]
A peak calling algorithm searched for statistically significant signals above background and detected contiguous regions (peaks) of at least 50 bp. […] Averaging the signal intensity across all probes in a peak produced a quantitative estimate of transcript abundance. Despite possible 3′ bias caused by polyadenylated RNA selection, our procedure detected exon 1 transcription from the majority of cell-cycle coding genes (41 of the 56), showing that this custom tiling array can detect previously reported transcribed regions. […]

“PANDA: P21-Associated NcRNA, DNA damage Activated; 1.5-kb long non-coding RNA” was tested. Which “retrieval of endogenous PANDA by immunoprecipitation of NF-YA” value (NF-YA [1]) did it give?
The value was “specifically retrieved”.

And the “retrieval of p21” value (p21)?
The value was “did not retrieve”.

What about the “retrieval of NF-YA from cellular lysates” value (NF-YA [2]) of the same molecule?
Its value is “specifically retrieved”.

And the “retrieval of LSD1” value (LSD1)?
The value was “did not retrieve”.

What about the “retrieval of EZH2” value (EZH2) of the same molecule?
Its value is “did not retrieve”.

`COc1cccc2c1C(=O)c1c(O)c3c(c(O)c1C2=O)C[C@@](O)(C(=O)CO)C[C@@H]3O[C@H]1C[C@H](N)[C@H](O)[C@H](C)O1` [doxorubicin] was tested. Which “apoptosis as measured by TUNEL” value [3] did it give?
Its value is “little to no apoptosis”.

What about the “expression of lncRNAs surrounding the CDKN1A TSS” value [4] of the same molecule?
The value was “all five of the tested lncRNAs surrounding the CDKN1A TSS were induced”.

And the “induction of Upst:CDKN1A:−4,845 (PANDA) upon DNA damage” value [4]?
Its value is “up to 40 fold”.

And the “ncRNAs with at least two-fold change” value [5]?
Its value is 12 of the 216.
